Source: ChEMBL document CHEMBL1201862, “PubChem BioAssay data set” (2004)
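Assay format: 96-well plates, 48-hour exposure. GI50 = concentration required for 50% inhibition of growth.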 Calls of active or inactive are those of the source. Rule as the data show it: active = GI50 up to about 1.1 µM and inactive = higher.

Columns and labels:
Test in all cases: DTP human tumour cell line panel, 48 h
[1] = test system: OVCAR-8
[2] = test system: SK-MEL-5
[3] = test system: EKVX
[4] = test system: CCRF-CEM
[5] = test system: NCI-H522
[6] = test system: MDA-MB-435
[7] = test system: HT-29
[8] = test system: TK-10
[9] = test system: UACC-62
[10] = test system: CAKI-1
[11] = test system: SF-295
[12] = test system: PC-3
[13] = test system: SF-268
[14] = test system: SN12C
[15] = test system: SNB-75
[16] = test system: SR
[17] = test system: SNB-19
[18] = test system: IGROV-1
[19] = test system: OVCAR-5
[20] = test system: DU-145
[21] = test system: NCI-H23
[22] = test system: SK-MEL-2
[23] = test system: SK-OV-3
[24] = test system: OVCAR-4
[25] = test system: Hs-578T
[26] = test system: RXF 393
[27] = test system: HCT-15
[28] = test system: SK-MEL-28
[29] = test system: SW-620
[30] = test system: 786-0
[31] = test system: T47D
[32] = test system: A498
[33] = test system: K562
[34] = test system: ACHN
[35] = test system: NCI/ADR-RES
[36] = test system: MOLT-4
[37] = test system: A549
[38] = test system: U-251
[39] = test system: NCI-H226
[40] = test system: SF-539
[41] = test system: HOP-92
[42] = test system: RPMI-8226
[43] = test system: KM12
[44] = test system: HCT-116
[45] = test system: COLO 205
[46] = test system: Malme-3M
[47] = test system: NCI-H460
[48] = test system: UACC-257
[49] = test system: M14
[50] = test system: MCF7
[51] = test system: HL-60
[52] = test system: MDA-MB-231
[53] = test system: UO-31
[54] = test system: OVCAR-3
[55] = test system: HCC 2998
[56] = test system: MDA-N
[57] = test system: HOP-62
[58] = test system: LOX IMVI

## O=c1[nH]nc(N/N=C\c2ccc(Cl)cc2)c2ccccc12
[1]
  GI50: 24.3 µM (inactive)
[2]
  GI50: 16.1 µM (inactive)
[3]
  GI50: 31.3 µM (inactive)
[4]
  GI50: 44 µM (inactive)
[5]
  GI50: 16.6 µM (inactive)
[6]
  GI50: 17.8 µM (inactive)
[7]
  GI50: 29.5 µM (inactive)
[8]
  GI50: 32.5 µM (inactive)
[9]
  GI50: 20.5 µM (inactive)
[10]
  GI50: 18.3 µM (inactive)
[11]
  GI50: 18.5 µM (inactive)
[12]
  GI50: 17.2 µM (inactive)
[13]
  GI50: 23.2 µM (inactive)
[14]
  GI50: 27.5 µM (inactive)
[15]
  GI50: 22.6 µM (inactive)
[16]
  GI50: 3.9 µM (inactive)
[17]
  GI50: 20.4 µM (inactive)
[18]
  GI50: 15.4 µM (inactive)
[19]
  GI50: 16.9 µM (inactive)
[20]
  GI50: 21.9 µM (inactive)
[21]
  GI50: 23 µM (inactive)
[22]
  GI50: 17.2 µM (inactive)
[23]
  GI50: 18.5 µM (inactive)
[24]
  GI50: 52.7 µM (inactive)
[25]
  GI50: 37 µM (inactive)
[26]
  GI50: 25.4 µM (inactive)
[27]
  GI50: 17.9 µM
[28]
  GI50: 23.3 µM (inactive)
[29]
  GI50: 17.5 µM (inactive)
[30]
  GI50: 14.8 µM (inactive)
[31]
  GI50: 25.7 µM (inactive)
[32]
  GI50: 30.3 µM (inactive)
[33]
  GI50: 20.9 µM (inactive)
[34]
  GI50: 21.4 µM (inactive)
[35]
  GI50: 19.6 µM (inactive)
[36]
  GI50: 60.3 µM (inactive)
[37]
  GI50: 20.1 µM (inactive)
[38]
  GI50: 20.5 µM (inactive)
[39]
  GI50: 27.6 µM (inactive)
[40]
  GI50: 21.4 µM (inactive)
[41]
  GI50: 16.9 µM (inactive)
[42]
  GI50: 25.7 µM (inactive)
[43]
  GI50: 21 µM (inactive)
[44]
  GI50: 28.2 µM (inactive)
[45]
  GI50: 19.5 µM (inactive)
[46]
  GI50: 22 µM (inactive)
[47]
  GI50: 20.3 µM (inactive)
[48]
  GI50: 21.4 µM (inactive)
[49]
  GI50: 18.7 µM (inactive)
[50]
  GI50: 22.4 µM (inactive)
[51]
  GI50: > 100 µM (inactive)
[52]
  GI50: 22.3 µM (inactive)
[53]
  GI50: 18.6 µM (inactive)
[54]
  GI50: 16 µM (inactive)

## O=C(O)CC1C(=O)OC2C3COC(=O)c4cc(O)c(O)c(O)c4-c4c(cc(O)c(O)c4O)C(=O)OC2C(OC(=O)c2cc(O)c(O)c4c2C1C(O)C(=O)O4)C(OC(=O)c1cc(O)c(O)c(O)c1)O3 (stereo unspecified)
[1]
  GI50: 20.5 µM (inactive)
[2]
  GI50: > 100 µM (inactive)
[3]
  GI50: 18 µM (inactive)
[4]
  GI50: 13.7 µM (inactive)
[5]
  GI50: 15.9 µM (inactive)
[6]
  GI50: 26.4 µM (inactive)
[7]
  GI50: 13.6 µM (inactive)
[8]
  GI50: > 100 µM (inactive)
[10]
  GI50: 17.3 µM (inactive)
[11]
  GI50: 27.8 µM (inactive)
[12]
  GI50: 33.8 µM (inactive)
[13]
  GI50: 36.6 µM (inactive)
[14]
  GI50: 17.5 µM (inactive)
[15]
  GI50: 3.35 µM (inactive)
[16]
  GI50: 33.7 µM (inactive)
[17]
  GI50: > 100 µM (inactive)
[18]
  GI50: 30.2 µM (inactive)
[19]
  GI50: 13.5 µM (inactive)
[20]
  GI50: 36.4 µM (inactive)
[21]
  GI50: 49.3 µM (inactive)
[22]
  GI50: > 100 µM (inactive)
[23]
  GI50: 18.5 µM (inactive)
[24]
  GI50: 37.9 µM (inactive)
[55]
  GI50: > 100 µM (inactive)
[25]
  GI50: 56.5 µM (inactive)
[26]
  GI50: 4.39 µM (inactive)
[27]
  GI50: 17.5 µM
[28]
  GI50: 95.5 µM (inactive)
[29]
  GI50: 28.8 µM (inactive)
[30]
  GI50: 18.5 µM (inactive)
[31]
  GI50: 59.8 µM (inactive)
[32]
  GI50: > 100 µM (inactive)
[33]
  GI50: 36.4 µM (inactive)
[34]
  GI50: 30.4 µM (inactive)
[35]
  GI50: 16.7 µM (inactive)
[36]
  GI50: 27.3 µM (inactive)
[37]
  GI50: 21.6 µM (inactive)
[56]
  GI50: 24.1 µM (inactive)
[38]
  GI50: 23.9 µM (inactive)
[39]
  GI50: 30.4 µM (inactive)
[40]
  GI50: 52.5 µM (inactive)
[41]
  GI50: 16.7 µM (inactive)
[42]
  GI50: 36.9 µM (inactive)
[43]
  GI50: 17 µM (inactive)
[57]
  GI50: > 100 µM (inactive)
[44]
  GI50: 14.6 µM (inactive)
[45]
  GI50: 35.1 µM (inactive)
[46]
  GI50: > 100 µM (inactive)
[47]
  GI50: 16 µM (inactive)
[48]
  GI50: 34.1 µM (inactive)
[58]
  GI50: 14 µM (inactive)
[49]
  GI50: 27.7 µM (inactive)
[50]
  GI50: 16.9 µM (inactive)
[51]
  GI50: 7.43 µM (inactive)
[52]
  GI50: 26.2 µM (inactive)
[53]
  GI50: 27.2 µM (inactive)
[54]
  GI50: 18 µM (inactive)

## COc1ccc2c(c[n+](C)c3c4cc5c(cc4ccc23)OCO5)c1OC
[6]
  GI50: 19.3 µM (inactive)
[12]
  GI50: 41.7 µM (inactive)
[20]
  GI50: > 100 µM (inactive)
[25]
  GI50: 80.4 µM (inactive)
[26]
  GI50: > 100 µM (inactive)
[31]
  GI50: > 100 µM (inactive)
[35]
  GI50: 34.8 µM (inactive)
[56]
  GI50: 16.7 µM (inactive)
[50]
  GI50: 9.55 µM (inactive)
[52]
  GI50: > 100 µM (inactive)
